{"source": "paper PMC2897767", "about": "“Two Distinct Mechanisms for Actin Capping Protein Regulation—Steric and Allosteric Inhibition” (PLoS Biology, 2010)", "key": {"[1]": {"tested_on": "CPfull (wild type CP)", "experiment": "Actin polymerization assay (barbed end elongation from spectrin-actin seeds): inhibition of CP capping", "type": "biochemical, chicken", "conditions": "actin 1.2 µM (5% pyrene-labeled); for inhibition of barbed end capping by CARMIL peptides: 3.6 nM CPfull, various peptide concentrations, 25°C (Figure 9D); for inhibition of CP capping activity by V-1 proteins: 3 nM wild type CP, various concentrations of V-1, 25°C (Figure S2)", "description": "(A) Superposition of the C-termini of the peptides. CD Phe505 and CK Arg169 are shown as stick models. The conserved proline at the C-terminus of the motifs is shown as balls. (B) CD2AP constructs used for biochemical assays. (C) CARMIL constructs used for biochemical assays. […] Actin (1.2 µM, 5% pyrene-labeled) was polymerized from spectrin-actin seeds in the presence of 3.6 nM CPfull (D), 10 nM CPβΔC (E), or 7.2 nM CPfull (F) with various concentrations of CARMIL peptides or GST-CA constructs.\nThe barbed end elongation assay from spectrin-actin seeds was performed essentially as previously described. Briefly, G-actin was stored in G-buffer (0.2 mM CaCl2, 0.2 mM ATP, 0.5 mM DTT and 10 mM imidazole, pH 7.0). At 90 s prior to polymerization, the Ca^2+ was replaced with Mg^2+, by the addition of 1/10 volume of 10 mM EGTA and 1 mM MgCl2 to G-actin. […] Actin polymerization was measured by monitoring the pyrene-actin fluorescence (excitation 370 nm; emission 410 nm) at 25°C.\n(0.16 MB TIF) Click here for additional data file."}, "[2]": {"tested_on": "CP", "experiment": "SPR competition with immobilized GST-CA92 for CP binding", "set-up": "species or system chicken", "conditions": "50 nM wild type CP pre-mixed with various concentrations of peptide (Figure S7)", "description": "(§1) GST-fusion proteins (GST-V-1, GST-CA, or GST-CD) were immobilized onto a CM5 sensor chip up to 200 RU (response units; 200 pg/mm^2) via anti-GST antibodies. […] Response curves were obtained by subtracting the background signal generated simultaneously on a control flow cell with immobilized GST. […] Kinetic parameters were determined by fitting the sensorgrams to a simple 1∶1 binding model, using the Bia-evaluation software (GE Healthcare). KD values were obtained from the kinetic rate constants.\n(0.25 MB TIF) Click here for additional data file."}, "[3]": {"tested_on": "CP wt / GST-V-1 interaction", "experiment": "SPR assay of the effect of CARMIL peptides on CP/V-1 binding", "set-up": "species or system chicken CP, human V-1", "description": "GST-V-1 was immobilized on a sensor chip.\nas §1"}, "[4]": {"target": "CPfull (CP wt)", "experiment": "SPR binding of CP to immobilized V-1", "set-up": "species or system chicken", "conditions": "V-1 mutant immobilized, analyte CP wt, equilibrium KD from Michaelis-Menten plots at saturated binding, not detectable = no binding at highest concentrations tested (≥ 50 µM)", "description": "(§2) The binding affinities of CP for V-1 or CARMIL proteins were evaluated by surface plasmon resonance measurements with Biacore 3000 or Biacore 2000 instruments (GE Healthcare). GST-fusion proteins (GST-V-1, GST-CA, or GST-CD) were immobilized onto a CM5 sensor chip up to 200 RU (response units; 200 pg/mm^2) via anti-GST antibodies. CP at various concentrations in running buffer (50 mM KCl, 1 mM MgCl2, 0.005% Tween-20, 10 mM imidazole, pH 7.0) was perfused over the chip at 20°C, at a flow rate of 20 µl/min. Response curves were obtained by subtracting the background signal generated simultaneously on a control flow cell with immobilized GST. To measure the effect of the CARMIL peptides on the facilitation of CP/V-1 dissociation (in Figure 11C and 11D), we used the “co-inject” mode for successive injections of the peptides followed by CP. Kinetic parameters were determined by fitting the sensorgrams to a simple 1∶1 binding model, using the Bia-evaluation software (GE Healthcare). KD values were obtained from the kinetic rate constants. […] KD values were evaluated by plotting these values against the concentrations of CP.\n^a Kinetic parameters were determined by fitting of the sensorgrams to a 1:1 binding model. KD = koff / kon .\n^b Kinetic parameters were not determined for mutant proteins, due to the fast dissociation of the complex (koff > 0.1 s^-1). […]"}, "[5]": {"tested_on": "CP", "experiment": "SPR binding of CP to immobilized GST-CD2AP / GST-CARMIL fragments", "set-up": "species or system chicken", "conditions": "20°C; for koff / kon: SPR (Biacore), CP perfused, 1:1 binding model; for koff: GST-fusion immobilized; for kon: GST-fusion immobilized via anti-GST antibody on CM5 chip, 50 mM KCl, 1 mM MgCl2, 0.005% Tween-20, 10 mM imidazole pH 7.0", "description": "Expression vectors for chicken CPfull and CPΔβC were constructed in pETDuet-1 by PCR, using pET-3d/CP [38] as the template. CP was expressed in E. coli Rosetta2 (DE3) and was purified as described. V-1 (human), expressed in E. coli Rosetta2 (DE3) as a GST-fusion protein, was affinity-purified and the tag was removed. Synthetic peptides derived from CARMIL proteins were obtained from Invitrogen. For crystallization, CP was incubated with a 1.2–2.0-fold molar excess of V-1 or CARMIL peptides at 4°C for 2 h, followed by gel filtration to purify the complexes. Expression vectors for the GST-CA constructs were prepared from the mouse cDNA clone as previously described. Vectors for GST-CD fragments were constructed by PCR cloning using a human whole brain cDNA library (Clontech) as the template. Amplified DNA fragments were cloned into pGEX-6P-1. GST-fusion proteins were expressed in E. coli Rosetta2 (DE3) cells and affinity-purified using glutathione sepharose resin. Mutations were introduced using a Quikchange mutagenesis kit (Stratagene). Actin was prepared from rabbit skeletal muscle, as previously described, and was further purified by gel filtration chromatography. Pyrene labeled-actin was prepared as described. Spectrin-actin seeds were prepared from rabbit red blood cells, as previously described.\nas §2"}}, "note": "“Also recorded” adds a separate entry of the source. Where no end group is shown, it is not given here.", "data": [{"substance": "CD23: synthetic peptide, human CD2AP residues 485–507 (CP-binding motif) (NLLHLTANRPKMPGRRLPGRFNG; UniProt Q9Y5K6 485-507, looked up, fragment)", "values": [{"measurement": "inhibition of barbed end capping by CARMIL peptides", "setting": "[1]", "value": "moderately inhibited"}, {"measurement": "competition with immobilized GST-CA92 for CP binding", "setting": "[2]", "value": "effectively compete"}, {"measurement": "facilitation of dissociation of CP from immobilized GST-V-1", "setting": "[3]; 45 nM CP wt perfused first, then 100 nM peptide, versus buffer control (Figure 11C)", "value": "CP dissociated from V-1 quite rapidly"}, {"measurement": "inhibition of CP/V-1 complex formation", "setting": "[3]; GST-V-1 immobilized, 100 nM peptide premixed with 45 nM CP wt (Figure 11A)", "value": "strongly inhibited"}]}, {"substance": "CD30: peptide with 7 extra residues at the C-terminus of CD23 (NLLHLTANRPKMPGRRLPGRFNGGHSPTHS; UniProt Q9Y5K6 485-514, looked up, fragment)", "values": [{"measurement": "inhibition of barbed end capping by CARMIL peptides", "setting": "[1]", "value": "higher CP inhibition activity than CD23"}]}, {"substance": "V-1 W8A: V-1 point mutant Trp8 to Ala", "values": [{"measurement": "inhibition of CP capping activity by V-1 proteins", "setting": "[1]", "value": "little inhibitory effect; also recorded: minimal effects on CP capping"}]}, {"substance": "V-1 E78R: V-1 point mutant Glu78 to Arg", "values": [{"measurement": "inhibition of CP capping activity by V-1 proteins", "setting": "[1]", "value": "little inhibitory effect; also recorded: minimal effects on CP capping"}, {"measurement": "Kd", "setting": "[4]", "value": 21, "unit": "µM"}]}, {"substance": "GST-CD43: GST fusion of human CD2AP residues 461–503 (FDSLTVRTSKETDVVNFDDIASSENLLHLTANRPKMPGRRLPG; also: GST fusion, end not given here)", "values": [{"measurement": "koff", "setting": "[5]; pH 7.0", "value": ">0.1", "unit": "s⁻¹"}]}, {"substance": "GST-CD47: GST fusion of human CD2AP residues 461–507 (FDSLTVRTSKETDVVNFDDIASSENLLHLTANRPKMPGRRLPGRFNG; also: GST fusion, end not given here)", "values": [{"measurement": "kon", "setting": "[5]", "value": "1.6e+06", "unit": "M⁻¹ s⁻¹"}, {"measurement": "koff", "setting": "[5]; pH 7.0", "value": 0.029, "unit": "s⁻¹"}]}, {"substance": "GST-CA55: GST fusion of mouse CARMIL residues 962–1016 (FPSVRQEKRSSGLISELPSEEGRRLEHFTKLRPKRNKKQQPTQAAVCTISILPQD; also: GST fusion, end not given here)", "values": [{"measurement": "koff", "setting": "[5]; pH 7.0", "value": ">0.1", "unit": "s⁻¹"}, {"measurement": "KD (in words)", "setting": "[5]; SPR, pH 7.0", "value": "micromolar range"}]}, {"substance": "GST-CD44: GST fusion of human CD2AP residues 461–504 (FDSLTVRTSKETDVVNFDDIASSENLLHLTANRPKMPGRRLPGR; also: GST fusion, end not given here)", "values": [{"measurement": "kon", "setting": "[5]", "value": 540000, "unit": "M⁻¹ s⁻¹"}, {"measurement": "koff", "setting": "[5]; pH 7.0", "value": 0.033, "unit": "s⁻¹"}]}, {"substance": "V-1 D44R: V-1 point mutant Asp44 to Arg", "values": [{"measurement": "inhibition of CP capping activity by V-1 proteins", "setting": "[1]", "value": "little inhibitory effect; also recorded: minimal effects on CP capping"}, {"measurement": "KD", "setting": "[4]", "value": "not detectable ^c"}]}]}
